US20140243414A1, “PHARMACEUTICAL COMPOSITIONS OF CETP INHIBITORS” (Japan Tobacco Inc., priority 2003, published 2014)
Where two headings read alike, the source gives them in different places.

Experiments:
CETP [1] = molecular target: T1, CETP (Homo sapiens, UniProt P11597); assay: Food effect on CETP activity, 900 mg Compound I, Caucasian males (Example 6); assay type: in vivo; conditions: for change in vivo at 900 mg: read-out: Percent change from pre-dose in CETP activity (mean)
T1 construct: from tissue; host or cells: blood / plasma of human subjects dosed orally with Compound I
T1 sequence (P11597 18-493): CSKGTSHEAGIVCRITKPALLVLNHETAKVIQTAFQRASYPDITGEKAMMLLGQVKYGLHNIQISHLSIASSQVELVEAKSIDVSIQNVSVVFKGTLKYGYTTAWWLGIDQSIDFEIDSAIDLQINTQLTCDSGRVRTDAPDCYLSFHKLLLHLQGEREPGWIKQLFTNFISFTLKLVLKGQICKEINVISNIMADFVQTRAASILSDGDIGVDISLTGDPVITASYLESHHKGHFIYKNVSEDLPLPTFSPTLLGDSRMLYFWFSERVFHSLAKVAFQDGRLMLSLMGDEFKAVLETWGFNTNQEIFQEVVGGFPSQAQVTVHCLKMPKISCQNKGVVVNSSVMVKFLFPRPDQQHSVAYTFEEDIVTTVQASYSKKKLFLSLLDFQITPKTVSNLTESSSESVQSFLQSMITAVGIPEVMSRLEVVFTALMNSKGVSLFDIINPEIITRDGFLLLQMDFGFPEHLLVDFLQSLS
Source text: Administration, dosing, and sampling schedules were substantially similar to those described in Example 1.
The procedure for determining CETP activity is described in Example 5.
The mean changes from baseline (pre-dose) in CETP activity over time are set out in the plot of FIG. 3.

CETP [2] = molecular target: T1, CETP; assay: Food effect on relative CETP activity, 600 mg Compound I, Japanese males (Example 8); assay type: in vivo
Description: Administration, dosing, and sampling schedules were commensurate with those described in Examples 1 and 6. […] Patients were administered two tablets of 300 mg each. The tablets were prepared as described in Example 1.
Relative CETP activities (calculated as a percentage of baseline CETP activity) and standard deviations (SD) were measured, and the resulting data is summarized in Table 9.

CETP [3] = molecular target: T1, CETP; assay: CETP activity after 4 weeks daily treatment, healthy volunteers (Example 9); assay type: in vivo; conditions: for Absolute change in CETP activity: 4 weeks treatment, mean ± SD; for Decrease in CETP activity relative to baseline: 4 weeks
Description: (§1) Each patient took three tablets after breakfast each day for 4 weeks. Patients either took three placebo tablets (placebo); one 300 mg tablet and two placebo tablets (low dose); two 300 mg tablets and one placebo tablet (medium dose); or three 300 mg tablets (high dose). Tablet preparation was as described as in Example 1.
(§2) The testing period consisted of (a) a run-in period of 4 weeks, followed by (b) 4 weeks of treatment, and (c) 4 weeks of monitoring. Blood samples were drawn after an overnight fast. […] HDL-C was determined with a heparin MnCl2 precipitation reagent and LDL-C was calculated by the Friedewald formula (see, de Grooth et al., supra). CETP activity was measured as described in Example 5.
(§3) Table 11 describes the absolute changes in the assayed properties after 4 weeks of treatment.

TC, HDL-C, LDL-C = assay: Lipid levels after 4 weeks daily treatment, healthy volunteers (Example 9); assay type: in vivo, human; conditions: for Decrease in TC/HDL-C ratio relative to baseline / Increase in HDL-C levels relative to baseline: 4 weeks; for Absolute change in HDL-C / Absolute change in TC / Absolute change in TC/HDL-C ratio / Absolute change in LDL-C: 4 weeks treatment, mean ± SD; for Absolute change in LDL-C: LDL-C by Friedewald formula
Description: as §1, §2, §3

CCC(CC)CC1(C(=O)Nc2ccccc2SC(=O)C(C)C)CCCCC1 [Compound I, S-[2-([[1-(2-ethylbutyl)cyclohexyl]carbonyl]amino)phenyl]2-methylpropanethioate]
change in vivo at 900 mg (CETP [1]; 1 h, fasted, 1 h): 1%
change in vivo at 900 mg (CETP [1]; 1 h, fed, 1 h): -1%
change in vivo at 900 mg (CETP [1]; 2 h, fasted, 2 h): 2%
change in vivo at 900 mg (CETP [1]; 2 h, fed, 2 h): -16%
change in vivo at 900 mg (CETP [1]; 4 h, fasted, 4 h): -4%
change in vivo at 900 mg (CETP [1]; 4 h, fed, 4 h): -44%
change in vivo at 900 mg (CETP [1]; 6 h, fasted, 6 h): -10%
change in vivo at 900 mg (CETP [1]; 6 h, fed, 6 h): -59%
change in vivo at 900 mg (CETP [1]; 8 h, fasted, 8 h): -15%
change in vivo at 900 mg (CETP [1]; 8 h, fed, 8 h): -58%
change in vivo at 900 mg (CETP [1]; 24 h, fasted, 24 h): -10%
change in vivo at 900 mg (CETP [1]; 24 h, fed, 24 h): -34%
CETP activity, Post-study (all subjects) (CETP [1]; all subjects (fed and fasted periods), post-study): 96
CETP activity relative to pre-dose (CETP [2]; fasted, 1 h): 102.1%
CETP activity relative to pre-dose (CETP [2]; fasted, 2 h): 99.6%
CETP activity relative to pre-dose (CETP [2]; fasted, 4 h): 96.5%
CETP activity relative to pre-dose (CETP [2]; fasted, 6 h): 89.5%
CETP activity relative to pre-dose (CETP [2]; fasted, 8 h): 87.8%
CETP activity relative to pre-dose (CETP [2]; fasted, 24 h): 92.6%
CETP activity relative to pre-dose (CETP [2]; fasted, post-study): 100.4%
CETP activity relative to pre-dose (CETP [2]; fed, 1 h): 100.4%
CETP activity relative to pre-dose (CETP [2]; fed, 2 h): 87.8%
CETP activity relative to pre-dose (CETP [2]; fed, 4 h): 52.6%
CETP activity relative to pre-dose (CETP [2]; fed, 6 h): 37.6%
CETP activity relative to pre-dose (CETP [2]; fed, 8 h): 39.1%
CETP activity relative to pre-dose (CETP [2]; fed, 24 h): 65.5%
CETP activity relative to pre-dose (CETP [2]; fed, post-study): 102.9%
Absolute change in CETP activity (CETP [3]; 300 mg per day after breakfast): −15.4 ± 11.9 % of control
Decrease in CETP activity relative to baseline (CETP [3]; 300 mg per day with food): about 17%
Absolute change in CETP activity (CETP [3]; 600 mg per day after breakfast): −29.6 ± 19.5 % of control
Decrease in CETP activity relative to baseline (CETP [3]; 600 mg per day with food): about 33%
Absolute change in CETP activity (CETP [3]; 900 mg per day after breakfast): −37.2 ± 17.6 % of control
Decrease in CETP activity relative to baseline (CETP [3]; 900 mg per day with food): about 39%
Decrease in TC/HDL-C ratio relative to baseline (TC, HDL-C, LDL-C; 300 mg per day): about 13%
Increase in HDL-C levels relative to baseline (TC, HDL-C, LDL-C; 300 mg per day): about 15%
Absolute change in HDL-C (TC, HDL-C, LDL-C; 300 mg per day): 0.18 ± 0.15 mmol/L
Absolute change in TC (TC, HDL-C, LDL-C; 300 mg per day): −0.1 ± 0.5^ mmol/L
Absolute change in TC/HDL-C ratio (TC, HDL-C, LDL-C; 300 mg per day): −0.7 ± 0.8
Absolute change in LDL-C (TC, HDL-C, LDL-C; 300 mg per day): −0.2 ± 0.5^ mmol/L
Decrease in TC/HDL-C ratio relative to baseline (TC, HDL-C, LDL-C; 600 mg per day): about 18%
Increase in HDL-C levels relative to baseline (TC, HDL-C, LDL-C; 600 mg per day): about 26%
Absolute change in HDL-C (TC, HDL-C, LDL-C; 600 mg per day): 0.32 ± 0.22 mmol/L
Absolute change in TC (TC, HDL-C, LDL-C; 600 mg per day): 0.0 ± 0.6 mmol/L
Absolute change in TC/HDL-C ratio (TC, HDL-C, LDL-C; 600 mg per day): −0.9 ± 0.8
Absolute change in LDL-C (TC, HDL-C, LDL-C; 600 mg per day): −0.2 ± 0.6^ mmol/L
Decrease in TC/HDL-C ratio relative to baseline (TC, HDL-C, LDL-C; 900 mg per day): about 23%
Increase in HDL-C levels relative to baseline (TC, HDL-C, LDL-C; 900 mg per day): about 34%
Absolute change in HDL-C (TC, HDL-C, LDL-C; 900 mg per day): 0.40 ± 0.29 mmol/L
Absolute change in TC (TC, HDL-C, LDL-C; 900 mg per day): 0.0 ± 0.6 mmol/L
Absolute change in TC/HDL-C ratio (TC, HDL-C, LDL-C; 900 mg per day): −1.2 ± 0.7
Absolute change in LDL-C (TC, HDL-C, LDL-C; 900 mg per day): -0.3 ± 0.6 mmol/L
